How the values were obtained:
Assay type in all cases: in vivo
Settings in all cases: adjuvant 0.25 and ENSOL 28 0.375 kg/ha where added, scale 0-100
[1] = test system: CHEAL (Chenopodium album, lambsquarters); experiment: Selective herbicidal activity post-emergence in the greenhouse
Method: (§1) The culture containers used were plastic pots containing loamy sand with approximately 3.0% of humus as substrate. The seeds of the test plants were sown separately for each species.
(§2) For the post-emergence treatment, the test plants were grown to a plant height of from 3 to 15 cm, depending on the plant habit, and only then treated with the herbicidal mixture which had been suspended or emulsified in water. To this end, the test plants were either sown directly and grown in the same containers, or they were first grown separately as seedlings and transplanted into the test containers a few days prior to treatment.
(§3) Depending on the species, the plants were kept at 10-25° C. or 20-35° C. The test period extended over 2 to 4 weeks. During this time, the plants were tended, and their response to the individual treatments was evaluated.
(§4) Evaluation was carried out using a scale of from 0 to 100. 100 means no emergence of the plants, or complete destruction of at least the aerial parts, and 0 means no damage or normal course of growth.

[2] = test system: POLPE (Polygonum persicaria, lady's thumb); experiment: as above
Method: as §1, §2, §3, §4

[3] = test system: SETVI (Setaria viridis, green foxtail); experiment: as above
Method: as §1, §2, §3, §4

[4] = test system: ECHCG (Echinochloa crus-galli, barnyardgrass); experiment: as above
Method: as §1, §2, §3, §4

[5] = test system: ABUTH (Abutilon theophrasti, velvetleaf); experiment: as above
Method: as §1, §2, §3, §4

[6] = test system: ZEAMX (Zea mays, corn); experiment: Selective herbicidal activity post-emergence in the greenhouse (crop phytotoxicity)
Method: as §1, §2, §3, §4

[7] = Table 1, EX. 1 0.0078 kg/ha a.s.
[8] = Table 2, EX. 1 0.0625 kg/ha a.s.
[9] = Table 11, EX. 1 0.0078 kg/ha a.s.
[10] = Table 17, EX. 1 0.0078 kg/ha a.s.
[11] = Table 19, EX. 1 0.0078 kg/ha a.s.
[12] = Table 21, EX. 1 0.0078 kg/ha a.s.
[13] = Table 20, EX. 1 0.0078 kg/ha a.s.
[14] = Table 5, EX. 1 0.0312 kg/ha a.s.
[15] = Table 8, EX. 1 0.0625 kg/ha a.s.

## Cn1ncc(C(=O)c2ccc(S(C)(=O)=O)c(C3=NOCC3)c2Cl)c1O [EX. 1]
[1]; [7]
  Phytotoxicity CHEAL: 20
[1]; [8]
  Phytotoxicity CHEAL: 50
[1]; Table 6, EX. 1 0.0078 kg/ha a.s.
  Phytotoxicity CHEAL: 20
[1]; Table 7, EX. 1 0.0156 kg/ha a.s.
  Phytotoxicity CHEAL: 20
[1]; Table 10, EX. 1 0.0078 kg/ha a.s.
  Phytotoxicity CHEAL: 20
[1]; [9]
  Phytotoxicity CHEAL: 20
[1]; Table 12, EX. 1 0.0156 kg/ha a.s.
  Phytotoxicity CHEAL: 20
[1]; Table 13, EX. 1 0.0156 kg/ha a.s.
  Phytotoxicity CHEAL: 20
[1]; Table 14, EX. 1 0.0156 kg/ha a.s.
  Phytotoxicity CHEAL: 20
[2]; [10]
  Phytotoxicity POLPE: 20
[2]; Table 18, EX. 1 0.0078 kg/ha a.s.
  Phytotoxicity POLPE: 70
[2]; [11]
  Phytotoxicity POLPE: 70
[2]; [12]
  Phytotoxicity POLPE: 70
[3]; [9]
  Phytotoxicity SETVI: 30
[3]; [10]
  Phytotoxicity SETVI: 30
[3]; [11]
  Phytotoxicity SETVI: 40
[3]; [13]
  Phytotoxicity SETVI: 40
[3]; [12]
  Phytotoxicity SETVI: 40
[4]; Table 3, EX. 1 0.0625 kg/ha a.s.
  Phytotoxicity ECHCG: 50
[4]; [14]
  Phytotoxicity ECHCG: 030
[4]; [15]
  Phytotoxicity ECHCG: 50
[4]; Table 9, EX. 1 0.0625 kg/ha a.s.
  Phytotoxicity ECHCG: 50
[4]; Table 15, EX. 1 0.0625 kg/ha a.s.
  Phytotoxicity ECHCG: 50
[5]; Table 4, EX. 1 0.0156 kg/ha a.s.
  Phytotoxicity ABUTH: 20
[5]; [14]
  Phytotoxicity ABUTH: 75
[5]; Table 16, EX. 1 0.0156 kg/ha a.s.
  Phytotoxicity ABUTH: 20
[6]; [7]
  Phytotoxicity ZEAMX: 0
[6]; [8]
  Phytotoxicity ZEAMX: 0
[6]; [15]
  Phytotoxicity ZEAMX: 0
[6]; [13]
  Phytotoxicity ZEAMX: 0
